The source made the active and inactive calls.
Experiments:
[1] = molecular target: Neuropeptides B/W receptor type 1 (Homo sapiens, UniProt P48145); experiment: Fluorescence-based dose response cell-based high throughput screening assay to identify antagonists of the G-protein coupled receptor 7 (GPR7). [Related pubchem assays: 1952 (Screening assay (GPR7 antagonists).), 1880 (Summary AID.)]; type: functional
[2] = molecular target: Melanin-concentrating hormone receptor 1 (Homo sapiens, UniProt Q99705); experiment: Fluorescence-based counterscreen for antagonists of the G-protein coupled receptor 7 (GPR7): cell-based high throughput dose response assay to identify antagonists of the melanin-concentrating hormone receptor 1 (MCHR1).; type: functional
Chaperone protein dnaK = Chaperone protein dnaK (Escherichia coli, UniProt C3TRK2); experiment: E. coli DnaK binders, calorimetric Kd – biophysical, isothermal titration calorimetry, beta-domain, full-length DnaK, orthogonal assay for DnaK modulator project, SAR follow-up (AID 1495)
Chaperone protein dnaK, sequence (C3TRK2 whole entry): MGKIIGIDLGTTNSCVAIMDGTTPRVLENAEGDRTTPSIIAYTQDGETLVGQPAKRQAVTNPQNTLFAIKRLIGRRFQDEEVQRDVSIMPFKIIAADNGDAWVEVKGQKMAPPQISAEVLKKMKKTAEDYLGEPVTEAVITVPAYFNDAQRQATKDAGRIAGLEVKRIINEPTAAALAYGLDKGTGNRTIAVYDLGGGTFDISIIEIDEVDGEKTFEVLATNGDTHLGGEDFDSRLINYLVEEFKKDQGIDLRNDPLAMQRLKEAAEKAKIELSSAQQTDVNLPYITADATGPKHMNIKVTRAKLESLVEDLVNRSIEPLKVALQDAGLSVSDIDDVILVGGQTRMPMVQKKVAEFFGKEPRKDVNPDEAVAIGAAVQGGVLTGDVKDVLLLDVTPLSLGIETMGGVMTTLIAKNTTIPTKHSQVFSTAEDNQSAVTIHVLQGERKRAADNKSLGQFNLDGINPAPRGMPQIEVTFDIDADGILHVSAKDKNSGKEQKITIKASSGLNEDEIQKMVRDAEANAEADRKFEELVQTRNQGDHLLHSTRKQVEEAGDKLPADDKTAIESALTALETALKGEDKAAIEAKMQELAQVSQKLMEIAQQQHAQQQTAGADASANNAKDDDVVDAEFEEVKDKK

[3] = molecular target: Lysosomal acid glucosylceramidase (Homo sapiens, UniProt P04062); experiment: Dose response cell-based high throughput screening assay to identify enhancers of beta-glucosidase activity. [Related pubchem assays: 784 ]; type: functional
Lysosomal acid glucosylceramidase, sequence (P04062 whole entry): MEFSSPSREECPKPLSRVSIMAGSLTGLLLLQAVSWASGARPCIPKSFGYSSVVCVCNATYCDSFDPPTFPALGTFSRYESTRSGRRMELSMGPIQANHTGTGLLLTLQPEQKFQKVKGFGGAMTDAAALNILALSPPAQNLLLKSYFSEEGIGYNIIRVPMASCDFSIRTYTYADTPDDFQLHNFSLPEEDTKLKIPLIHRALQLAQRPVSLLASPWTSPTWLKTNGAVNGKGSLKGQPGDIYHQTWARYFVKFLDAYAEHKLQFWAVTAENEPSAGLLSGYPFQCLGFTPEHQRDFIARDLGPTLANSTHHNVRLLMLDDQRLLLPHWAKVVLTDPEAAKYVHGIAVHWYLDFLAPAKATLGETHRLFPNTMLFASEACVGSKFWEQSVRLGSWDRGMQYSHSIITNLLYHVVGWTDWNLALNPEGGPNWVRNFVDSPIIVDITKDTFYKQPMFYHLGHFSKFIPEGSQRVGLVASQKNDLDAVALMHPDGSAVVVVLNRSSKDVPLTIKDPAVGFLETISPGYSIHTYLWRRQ

Staphylococcus aureus = experiment: Inhibitors of Bacterial Quorum Sensing Structure Activity Relationship (SAR) Analysis: Dose Response Assay. [Related pubchem assays: 700, 527 ]; type: functional, organism-based
[4] = viability loss of HPDE-C7K cells – cell-based, fluorescence, HTS, primary screen (AID 431); type: functional; conditions: Homo sapiens
[5] = molecular target: T1, Alkaline phosphatase, tissue-nonspecific isozyme (Homo sapiens, UniProt P05186); experiment: activation of tissue-nonspecific alkaline phosphatase – biochemical, TNAP isozyme, human IAP uHTS hits, selectivity assay for human IAP activator project, dose response (AID 488886); type: functional;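 also: potency of compounds raising TNAP activity as a selectivity check on IAP activators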
T1 sequence (P05186 whole entry): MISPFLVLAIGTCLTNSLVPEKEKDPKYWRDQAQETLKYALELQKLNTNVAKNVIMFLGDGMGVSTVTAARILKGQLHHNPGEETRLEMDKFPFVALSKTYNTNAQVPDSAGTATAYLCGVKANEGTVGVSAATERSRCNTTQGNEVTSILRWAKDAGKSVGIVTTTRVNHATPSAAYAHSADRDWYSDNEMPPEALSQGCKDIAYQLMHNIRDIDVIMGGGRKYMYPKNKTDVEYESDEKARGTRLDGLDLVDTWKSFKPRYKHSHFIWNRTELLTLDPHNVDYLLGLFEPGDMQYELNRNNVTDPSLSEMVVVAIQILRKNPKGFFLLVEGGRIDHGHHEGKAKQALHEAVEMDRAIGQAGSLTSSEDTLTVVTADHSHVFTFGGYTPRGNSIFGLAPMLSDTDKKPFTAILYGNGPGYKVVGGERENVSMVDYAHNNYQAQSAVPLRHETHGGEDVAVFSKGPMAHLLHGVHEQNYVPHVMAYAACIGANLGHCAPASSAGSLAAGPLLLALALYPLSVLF

[6] = HPDE-C7 pancreatic duct cell viability loss – fluorescence, HTS (AID 430); type: functional, cell-based; conditions: Homo sapiens
[7] = molecular target: T2, Intestinal-type alkaline phosphatase (Homo sapiens, UniProt P09923); experiment: human intestinal alkaline phosphatase activators, dose response, biochemical, luminescence, uHTS hits (AID 463120); type: functional
T2 sequence (P09923 whole entry): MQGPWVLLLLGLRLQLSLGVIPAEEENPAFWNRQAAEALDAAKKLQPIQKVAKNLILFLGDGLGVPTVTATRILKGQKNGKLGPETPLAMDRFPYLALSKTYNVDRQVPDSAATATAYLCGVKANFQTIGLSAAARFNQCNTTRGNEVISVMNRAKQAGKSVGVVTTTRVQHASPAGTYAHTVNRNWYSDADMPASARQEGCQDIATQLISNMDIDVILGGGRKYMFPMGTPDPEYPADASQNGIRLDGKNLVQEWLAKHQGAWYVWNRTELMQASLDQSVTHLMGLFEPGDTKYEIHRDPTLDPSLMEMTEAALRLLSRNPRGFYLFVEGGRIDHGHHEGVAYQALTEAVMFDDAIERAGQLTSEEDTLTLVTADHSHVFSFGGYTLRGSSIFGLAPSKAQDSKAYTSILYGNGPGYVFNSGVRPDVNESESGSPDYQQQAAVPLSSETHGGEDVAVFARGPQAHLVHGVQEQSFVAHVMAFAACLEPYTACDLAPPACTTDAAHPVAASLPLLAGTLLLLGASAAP

[8] = molecular target: T2, Intestinal-type alkaline phosphatase; experiment: activation of human intestinal alkaline phosphatase – biochemical, luminescent, uHTS hits, set 2, dose response (AID 488817); type: functional;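 also: potency of activators that raise enzyme activity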
[9] = molecular target: Intestinal-type alkaline phosphatase (Mus musculus, UniProt P24822); experiment: PubChem AID 488874; type: functional
[10] = molecular target: T3, Mannose-6-phosphate isomerase (Homo sapiens, UniProt P34949); experiment: phosphomannose isomerase inhibition – biochemical, fluorescence intensity, confirmation (AID 1535)
T3 sequence (P34949 whole entry): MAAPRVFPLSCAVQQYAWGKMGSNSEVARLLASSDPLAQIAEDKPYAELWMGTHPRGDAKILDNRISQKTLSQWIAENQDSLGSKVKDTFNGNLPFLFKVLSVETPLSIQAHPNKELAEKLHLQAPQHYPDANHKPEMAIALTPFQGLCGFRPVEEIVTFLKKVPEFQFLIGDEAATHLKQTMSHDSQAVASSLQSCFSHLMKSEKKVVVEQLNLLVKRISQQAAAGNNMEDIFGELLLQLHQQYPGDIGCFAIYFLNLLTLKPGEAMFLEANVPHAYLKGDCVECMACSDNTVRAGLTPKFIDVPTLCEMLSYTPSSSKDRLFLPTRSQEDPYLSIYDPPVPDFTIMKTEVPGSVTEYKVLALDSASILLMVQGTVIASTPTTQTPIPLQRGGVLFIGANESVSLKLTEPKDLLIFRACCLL

Phosphomannomutase 2 = Phosphomannomutase 2 (Homo sapiens, UniProt O15305); experiment: Counter screen SAR assay for PMM2 inhibitors via a fluorescence intensity assay. [Related pubchem assays (depositor defined):AID1545, AID1574]
[11] = molecular target: Phosphoethanolamine/phosphocholine phosphatase (Homo sapiens, UniProt Q8TCT1); experiment: SAR assay for compounds that inhibit PHOSPHO1. [Related pubchem assays (depositor defined):AID1545, AID1565, AID1574]
[12] = molecular target: G-protein coupled receptor 55 (Homo sapiens, UniProt Q9Y2T6); experiment: selective activators of receptor GPR55 – imaging, U2OS cells, beta-arrestin-GFP redistribution, primary screen (AID 1961); type: functional
G-protein coupled receptor 55, sequence (Q9Y2T6 whole entry): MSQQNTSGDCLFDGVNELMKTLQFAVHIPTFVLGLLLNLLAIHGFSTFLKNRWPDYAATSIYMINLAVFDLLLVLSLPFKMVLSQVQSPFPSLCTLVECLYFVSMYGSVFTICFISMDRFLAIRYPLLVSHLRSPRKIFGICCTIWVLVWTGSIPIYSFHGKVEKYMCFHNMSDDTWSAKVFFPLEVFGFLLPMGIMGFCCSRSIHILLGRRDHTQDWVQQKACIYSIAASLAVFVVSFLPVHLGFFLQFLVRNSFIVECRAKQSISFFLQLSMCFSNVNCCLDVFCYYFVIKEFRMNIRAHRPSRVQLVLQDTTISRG

[13] = molecular target: Eukaryotic translation initiation factor 4H (Homo sapiens, UniProt Q15056); experiment: inhibitors of translation initiation factor eIF4H – SAR follow-up (AID 435011); type: functional
[14] = molecular target: Polyadenylate-binding protein 1 (Homo sapiens, UniProt P11940); experiment: PABP inhibition in translation initiation, SAR follow-up (AID 435018); type: functional
Polyadenylate-binding protein 1, sequence (P11940 whole entry): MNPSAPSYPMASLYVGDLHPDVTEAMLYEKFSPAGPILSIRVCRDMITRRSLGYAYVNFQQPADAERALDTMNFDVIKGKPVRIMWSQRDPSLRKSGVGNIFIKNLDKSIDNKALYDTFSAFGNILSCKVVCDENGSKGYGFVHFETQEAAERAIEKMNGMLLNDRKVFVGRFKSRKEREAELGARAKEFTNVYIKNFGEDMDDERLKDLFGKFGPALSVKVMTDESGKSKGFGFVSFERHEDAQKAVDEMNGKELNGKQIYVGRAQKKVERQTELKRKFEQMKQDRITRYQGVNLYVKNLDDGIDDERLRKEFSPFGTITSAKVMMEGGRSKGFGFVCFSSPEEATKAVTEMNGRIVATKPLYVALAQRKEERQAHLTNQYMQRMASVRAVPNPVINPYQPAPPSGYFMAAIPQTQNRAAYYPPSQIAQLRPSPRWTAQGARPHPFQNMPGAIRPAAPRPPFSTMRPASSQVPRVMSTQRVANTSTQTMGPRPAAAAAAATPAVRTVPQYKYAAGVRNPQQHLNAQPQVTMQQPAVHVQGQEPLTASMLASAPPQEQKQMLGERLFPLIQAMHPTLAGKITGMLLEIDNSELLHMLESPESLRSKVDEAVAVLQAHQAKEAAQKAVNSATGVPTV

[15] = molecular target: T3, Mannose-6-phosphate isomerase; experiment: MPI enzyme activity inhibition – biochemical, fluorescence intensity, coupled assay, primary screen (AID 1209)
[16] = molecular target: DNA dC->dU-editing enzyme APOBEC-3A (Homo sapiens, UniProt P31941); experiment: A3A deaminase inhibition for selectivity – biochemical, dose response (AID 504722); type: functional
DNA dC->dU-editing enzyme APOBEC-3A, sequence (P31941 whole entry): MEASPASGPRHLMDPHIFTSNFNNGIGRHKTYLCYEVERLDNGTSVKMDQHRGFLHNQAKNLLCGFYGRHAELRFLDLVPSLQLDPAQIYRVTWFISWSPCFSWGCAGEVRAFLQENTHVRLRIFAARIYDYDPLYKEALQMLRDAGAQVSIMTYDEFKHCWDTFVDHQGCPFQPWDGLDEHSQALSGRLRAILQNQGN

[17] = molecular target: DNA dC->dU-editing enzyme APOBEC-3G (Homo sapiens, UniProt Q9HC16); experiment: Dose Response confirmation of small molecule APOBEC3G DNA Deaminase Inhibitors via a fluorescence-based single-stranded DNA deaminase assay. [Related pubchem assays (depositor defined):AID493012, AID493028]; type: functional
DNA dC->dU-editing enzyme APOBEC-3G, sequence (Q9HC16 whole entry): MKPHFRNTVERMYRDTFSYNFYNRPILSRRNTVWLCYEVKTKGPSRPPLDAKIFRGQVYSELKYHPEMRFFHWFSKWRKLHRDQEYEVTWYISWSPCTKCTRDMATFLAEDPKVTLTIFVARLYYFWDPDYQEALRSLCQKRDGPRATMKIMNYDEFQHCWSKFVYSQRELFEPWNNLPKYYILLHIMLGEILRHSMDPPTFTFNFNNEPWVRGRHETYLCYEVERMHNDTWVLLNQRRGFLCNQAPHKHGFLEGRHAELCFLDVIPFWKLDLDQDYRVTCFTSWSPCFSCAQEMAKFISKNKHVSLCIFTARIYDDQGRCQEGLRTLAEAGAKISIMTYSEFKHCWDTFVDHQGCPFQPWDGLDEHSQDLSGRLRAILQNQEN

Aspartyl aminopeptidase = Aspartyl aminopeptidase (Plasmodium falciparum 3D7, UniProt Q8I2J3)
Aspartyl aminopeptidase, sequence (Q8I2J3 whole entry): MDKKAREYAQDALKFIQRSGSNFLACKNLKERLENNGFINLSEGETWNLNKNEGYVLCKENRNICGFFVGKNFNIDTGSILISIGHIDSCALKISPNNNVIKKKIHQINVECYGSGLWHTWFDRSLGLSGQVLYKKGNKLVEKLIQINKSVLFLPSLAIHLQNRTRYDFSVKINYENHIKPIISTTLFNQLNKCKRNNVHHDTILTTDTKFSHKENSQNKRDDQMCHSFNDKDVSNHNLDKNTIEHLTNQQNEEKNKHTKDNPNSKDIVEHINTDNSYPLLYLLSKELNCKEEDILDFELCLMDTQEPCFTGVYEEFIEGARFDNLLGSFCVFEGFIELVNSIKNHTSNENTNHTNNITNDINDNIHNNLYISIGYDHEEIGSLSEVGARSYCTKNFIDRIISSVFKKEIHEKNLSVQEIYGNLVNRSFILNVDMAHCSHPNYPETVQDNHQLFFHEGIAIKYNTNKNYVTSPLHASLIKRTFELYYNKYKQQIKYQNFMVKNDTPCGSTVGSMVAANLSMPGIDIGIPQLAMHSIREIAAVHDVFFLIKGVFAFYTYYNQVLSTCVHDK

[18] = molecular target: T3, Mannose-6-phosphate isomerase; experiment: MPI inhibition at elevated mannose 6-phosphate – biochemical, fluorescence intensity, high mannose 6-phosphate, primary screen (AID 1220)
Procathepsin L = Procathepsin L (Homo sapiens, UniProt P07711)
HeLa = experiment: viability loss in HeLa cells – cell-based, 24 h, cherry-picked samples, cytotoxicity control, dose response (AID 504726); type: functional; conditions: Homo sapiens;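 also: potency for cytotoxicity as loss of luminescence signal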
[19] = molecular target: Kappa-type opioid receptor (Homo sapiens, UniProt P41145); experiment: SAR analysis of small molecule agonists of the kappa opioid receptor via a luminescent beta-arrestin assay - Set 2. [Related pubchem assays (depositor defined):AID1777, AID1785, AID1786, AID1966, AID2133, AID2136, AID2284, AID449737]; type: functional
Bcl-2-like protein 10 = Bcl-2-like protein 10 (Homo sapiens, UniProt Q9HD36); experiment: Bcl-B/TR3 peptide binding disruption – biochemical, fluorescence polarization, FITC-TR3 peptide, selectivity assay for Bfl-1 inhibitor project, primary screen (AID 748);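 also: fluorescence polarization from a fluorescein-labelled TR3 peptide binding purified Bcl-B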
[20] = molecular target: Dual specificity protein phosphatase 3 (Homo sapiens, UniProt P51452); experiment: Dose Response Confirmation of compounds that inhibit VHR1 in Fluorescent Assay. [Related pubchem assays (depositor defined):AID1661, AID1878]; type: functional
[21] = molecular target: T4, Tyrosine-protein phosphatase non-receptor type 7 (Homo sapiens, UniProt P35236); experiment: Dose Response confirmation of compounds that inhibit HePTP. [Related pubchem assays (depositor defined):AID1059, AID1661, AID2085]; type: functional
T4 sequence (P35236 whole entry): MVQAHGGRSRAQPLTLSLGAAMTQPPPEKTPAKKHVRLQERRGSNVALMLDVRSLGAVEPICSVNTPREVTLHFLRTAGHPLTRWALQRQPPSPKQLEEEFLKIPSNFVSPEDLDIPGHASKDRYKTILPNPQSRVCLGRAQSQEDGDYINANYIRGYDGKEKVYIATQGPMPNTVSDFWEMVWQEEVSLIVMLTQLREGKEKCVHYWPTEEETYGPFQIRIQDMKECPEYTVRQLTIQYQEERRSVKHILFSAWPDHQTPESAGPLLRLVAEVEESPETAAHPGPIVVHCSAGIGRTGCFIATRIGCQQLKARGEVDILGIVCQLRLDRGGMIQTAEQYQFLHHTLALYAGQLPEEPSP

Cytochrome P450 2C9 = Cytochrome P450 2C9 (Homo sapiens, UniProt P11712); conditions: Potency
Cytochrome P450 2C9, sequence (P11712 whole entry): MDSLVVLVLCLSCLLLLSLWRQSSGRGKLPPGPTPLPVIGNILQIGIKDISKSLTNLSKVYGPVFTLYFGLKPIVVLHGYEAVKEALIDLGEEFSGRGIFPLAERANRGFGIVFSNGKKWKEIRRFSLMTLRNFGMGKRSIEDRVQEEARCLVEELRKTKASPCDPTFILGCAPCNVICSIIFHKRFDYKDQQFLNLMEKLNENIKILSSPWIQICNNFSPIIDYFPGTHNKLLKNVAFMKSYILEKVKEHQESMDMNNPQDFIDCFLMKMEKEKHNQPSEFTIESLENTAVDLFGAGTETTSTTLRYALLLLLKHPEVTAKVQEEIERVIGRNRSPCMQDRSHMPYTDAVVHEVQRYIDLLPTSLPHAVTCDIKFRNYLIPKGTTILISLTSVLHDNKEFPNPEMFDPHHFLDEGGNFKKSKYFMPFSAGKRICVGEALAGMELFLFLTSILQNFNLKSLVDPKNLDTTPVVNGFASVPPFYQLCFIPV

[22] = system: Streptococcus sp. 'group A'; experiment: Streptococcus pyogenes SK(-)GAS viability under kanamycin – luminescence, BacTiterGlo, confirmation, counter-screen for streptokinase expression inhibitor project, dose response (AID 1900); type: functional, organism-based
Streptococcus [23] = experiment: GAS UMAA2166 growth inhibition – luminescence, BacTiterGlo, counter-screen for streptokinase expression inhibitor project, dose response (AID 1915); type: functional, organism-based;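 also: potency for reduction of bacterial viability or growth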
Streptokinase A = molecular target: T5, Streptokinase A (Streptococcus pyogenes serotype M1, UniProt P10520); experiment: viability-normalized secreted streptokinase activity reduction – plasminogen activation absorbance, OD405, dose response (AID 1914); type: functional, Streptococcus pyogenes M1 GAS;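 also: secreted streptokinase activity via plasminogen activation per viability signal from cell pellet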
T5 sequence (P10520 whole entry): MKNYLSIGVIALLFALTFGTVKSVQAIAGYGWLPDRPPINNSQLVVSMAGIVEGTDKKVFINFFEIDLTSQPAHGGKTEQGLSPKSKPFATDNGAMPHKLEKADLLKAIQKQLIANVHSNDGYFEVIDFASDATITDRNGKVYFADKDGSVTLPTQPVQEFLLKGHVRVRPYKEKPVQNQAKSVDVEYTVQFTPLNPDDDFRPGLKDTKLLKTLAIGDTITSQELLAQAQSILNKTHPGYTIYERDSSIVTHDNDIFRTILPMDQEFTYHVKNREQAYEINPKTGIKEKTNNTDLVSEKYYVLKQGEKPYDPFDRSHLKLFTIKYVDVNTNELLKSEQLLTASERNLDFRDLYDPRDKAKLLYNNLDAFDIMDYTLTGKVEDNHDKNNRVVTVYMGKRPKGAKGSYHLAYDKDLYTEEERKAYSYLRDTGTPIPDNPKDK

Streptococcus [24] = experiment: Luminescence Microorganism-Based Dose Response Follow up to Identify Compounds Cytotoxic to Streptococcus. [Related pubchem assays: 1677 (Project Summary), 1915, 1914, 1902 (Retest at Dose), 1900 (Counter Screen), 1662 (Primary HTS)]; type: functional, organism-based

Neuropeptides B/W receptor type 1, sequence (P48145 whole entry): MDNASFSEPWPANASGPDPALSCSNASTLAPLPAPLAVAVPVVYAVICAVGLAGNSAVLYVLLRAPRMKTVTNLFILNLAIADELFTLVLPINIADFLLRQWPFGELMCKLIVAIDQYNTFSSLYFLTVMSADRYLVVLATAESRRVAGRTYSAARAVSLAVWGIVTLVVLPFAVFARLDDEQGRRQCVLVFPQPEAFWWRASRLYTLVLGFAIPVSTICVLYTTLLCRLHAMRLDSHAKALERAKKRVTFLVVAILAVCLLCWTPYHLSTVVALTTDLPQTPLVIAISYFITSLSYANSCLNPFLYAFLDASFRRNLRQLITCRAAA

Compound: O=C(NCc1cccnc1)c1cc(-c2ccc(Cl)cc2)oc1C(F)(F)F
- IC50 [1]: > 14.6 µM (not active)
- IC50 [2]: 11.9 µM (not active)

Compound: CC(Cc1ccc(F)cc1)NC(=O)c1cccs1 (stereo not drawn)
- Kd (Chaperone protein dnaK): 28 µM (inactive)

Compound: COc1cccc(-c2cc(C(F)(F)F)nc(NCc3ccco3)n2)c1
- EC50 [3]: > 50 µM (not active)

Compound: O=C(NCC(c1cccnc1)N1CCN(c2ccccc2)CC1)c1cccs1 (stereo not drawn)
- IC50 (Staphylococcus aureus): 1.05 µM (active)

Compound: O=c1cc(-c2ccccc2)[nH]n1-c1nc2ccccc2[nH]1
- EC50 [4]: 2.21 µM (active)
- EC50 [5]: 17.1 µM (active)
- EC50 [6]: 2.73 µM (active)
- EC50 [7]: 11.5 µM (active)
- EC50 [8]: 14.8 µM (active)
- IC50 [9]: 36.8 µM (active)

Compound: O=C1c2ccccc2C(=O)c2c1ccc1c(=O)n(-c3ccc(Cl)cc3)sc21
- IC50 [10]: > 50 µM (inactive)
- IC50 (Phosphomannomutase 2): > 100 µM (inactive)
- IC50 [11]: 0.82 µM (active)

Compound: NC(=S)N/N=C/c1c[nH]c2ccc(OCc3ccccc3)cc12
- EC50 [12]: 0.874 µM (active)

Compound: COCc1ccc(C(=O)OCC(=O)Nc2ccc([N+](=O)[O-])cc2OC)cc1
- IC50 [13]: > 100 µM (inactive)
- IC50 [14]: > 100 µM (inactive)

Compound: Cc1cc(C)n2c(S)nnc2n1
- IC50 [15]: 43.2 µM (active)
- IC50 [16]: > 100 µM (inactive)
- IC50 [17]: 17 µM (active)
- IC50 (Aspartyl aminopeptidase): 6.41 µM (active)
- IC50 [18]: > 50 µM (not active)
- IC50 (Procathepsin L): > 59.6 µM (not active)

Compound: Cc1ccc(N(C)C(=O)C2CCCN2S(=O)(=O)c2ccc3c(c2)n(C)c(=O)c(=O)n3C)cc1 (stereo not drawn)
- AC50 (HeLa): 267 µM (active)

Compound: O=C(CN(Cc1cccs1)C(=O)c1cccnc1)NC1CCCCC1
- EC50 [19]: > 20 µM (inactive)

Compound: c1cc2c3c(cccc3c1)NC1(CCCCC1)N2
- IC50 (Bcl-2-like protein 10): 60.5 µM (inactive)

Compound: Cc1ccc2nc(-c3ccncc3)cc(C(=O)Nc3ccc(OC(F)F)cc3)c2c1
- IC50 [20]: 5.69 µM (active)
- IC50 [21]: 4.12 µM (active)

Compound: CC(C)C[C@@H](CC(=O)N[C@@H](CCCN)CC(=O)N[C@@H]1CCCC[C@H]1C(=O)N[C@H](CC(=O)N[C@@H](CCC(=O)O)CC(=O)O)CC(C)C)NC(=O)[C@@H]1CNCC[C@H]1N
- AC50 (Cytochrome P450 2C9): 39.8 µM (inconclusive)

Compound: FC(F)(F)c1cccc(-c2cc3ccccc3nc2N2CCCC2)c1
- EC50 [22]: 6.96 µM (active)
- EC50 (Streptococcus [23]): > 150 µM (not active)
- EC50 (Streptokinase A): 9.12 µM (active)
- EC50 (Streptococcus [24]): > 500 µM (not active)

From ChEMBL document CHEMBL1201862, “PubChem BioAssay data set” (2004)
